The values that follow come from patent publication US9403830B2, “Inhibitors of leukotriene production” (Boehringer Ingelheim International GmbH, priority 2012, dated 2016).

Molecules are shown by their SMILES.

Test [1] concerns the target T1, human LTA4 hydrolase (Homo sapiens, UniProt P09960).
T1 sequence (P09960 1-611): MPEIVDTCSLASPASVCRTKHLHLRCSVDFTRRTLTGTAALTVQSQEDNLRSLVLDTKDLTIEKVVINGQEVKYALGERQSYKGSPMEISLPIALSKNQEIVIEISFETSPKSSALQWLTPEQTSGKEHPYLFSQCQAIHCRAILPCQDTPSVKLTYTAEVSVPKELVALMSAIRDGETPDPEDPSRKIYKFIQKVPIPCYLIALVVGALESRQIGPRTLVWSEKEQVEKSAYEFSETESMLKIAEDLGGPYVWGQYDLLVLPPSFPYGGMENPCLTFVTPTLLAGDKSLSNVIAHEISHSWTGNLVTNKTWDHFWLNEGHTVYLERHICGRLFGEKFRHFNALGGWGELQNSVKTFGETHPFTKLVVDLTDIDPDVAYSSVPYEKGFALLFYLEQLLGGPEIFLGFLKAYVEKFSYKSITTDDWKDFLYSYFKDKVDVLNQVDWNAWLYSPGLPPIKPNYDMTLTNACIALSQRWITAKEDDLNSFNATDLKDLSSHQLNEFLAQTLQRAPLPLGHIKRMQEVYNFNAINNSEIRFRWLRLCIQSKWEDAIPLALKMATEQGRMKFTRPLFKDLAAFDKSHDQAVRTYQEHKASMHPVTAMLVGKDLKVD
Description: LTA4H Enzyme assay (peptidase, Arg-AMC cleavage). In kind it is biochemical. The following applies: LTA4H enzyme 1 nM, Arg-AMC substrate 50 μM, room temperature 1 h, fluorescence 380/460 nm. The protocol: The compounds of the invention are assessed for the ability to interact with human LTA4 hydrolase in an enzymatic assay that measures the ability of the enzyme to cleave the peptide bond of arginyl-aminomethylcoumarin (Arg-AMC). LTA4H Enzyme (1 nM final), Arg-AMC substrate (50 μM final), and compound are combined in a reaction buffer (50 mM Tris-HCl (pH 7.5), 100 mM KCl, 0.5% bovine serum albumin) at room temperature for 1 h. The formation of product is assessed by measuring the fluorescence of aminomethylcoumarin product (excitation wavelength 380 nm/emission wavelength 460 nm). In general, the preferred potency range (IC50) of compounds in the LTA4H Enzyme assay is between 0.1 nM to 10 μM, the more preferred potency range is 0.1 nM to 0.1 μM, and the most preferred potency range is 0.1 nM to 10 nM.

Test [2] has as its system LTB4 synthesis in human whole blood. Briefly: human whole blood (HWB) assay, inhibition of LTB4 production. The following applies: heparinized human whole blood, calcimycin 20 μM stimulation, plasma LTB4. In kind it is cell-based. As to the method: The compounds of the invention are additionally tested in a human whole blood (HWB) assay to determine their ability to inhibit the synthesis of LTB4 in a cellular system. Compounds are combined with heparinized human whole blood and incubated for 15 minutes at 37° C. Calcimycin (20 μM final, prepared in phosphate-buffered saline, pH 7.4) is then added and the mixture is incubated for another 30 minutes at 37° C. The samples are centrifuged for 5 min at low speed (1500×g) and the plasma layer is removed. Plasma LTB4 concentrations are then measured using an antibody-based homogenous time-resolved fluorescence method (CisBio, Bedford, Mass.). In general, the preferred potency range (IC50) of compounds in the HWB assay is between 10 nM to 10 μM, the more preferred potency range is 10 nM to 1 μM, and the most preferred potency range is 10 nM to 100 nM.

Turning to `CN(Cc1nc2cc(Oc3ccc(-c4ccn[nH]4)cc3)ccc2[nH]1)C(=O)C1CC1` [Example 233, Cyclopropanecarboxylic acid methyl-{5-[4-(2H-pyrazol-3-yl)-phenoxy]-1H-benzoimidazol-2-ylmethyl}-amide], the IC50 – broadly, the concentration needed to halve the response being measured – turned out to be 0.24 nM in test [1] and 170 nM in test [2].
As for `CC(=O)N[C@@H]1C[C@H]2CC[C@@H](C1)N2Cc1ccc2cc(Oc3ccc(-c4cc[nH]n4)cn3)ccc2n1` [Example 239, N-((exo)-8-{6-[5-(1H-Pyrazol-3-yl)-pyridin-2-yloxy]-quinolin-2-ylmethyl}-8-aza-bicyclo[3.2.1]oct-3-yl)-acetamide], the IC50 in test [1] came out at 0.43 nM; in test [2], 260 nM.
For `COC1CCN(Cc2ccc3cc(Oc4ccc(-c5ccn[nH]5)cn4)ccc3n2)CC1` [Example 212, 2-(4-Methoxy-piperidin-1-ylmethyl)-6-[5-(2H-pyrazol-3-yl)-pyridin-2-yloxy]-quinoline], the IC50 in test [1] turned out to be 1.2 nM; in test [2], 250 nM.
In the same order, the values of `c1ccc(OC2CCN(Cc3ccc4cc(Oc5ccc(-c6ccn[nH]6)cn5)ccc4n3)CC2)nc1` [Example 215, 6-[5-(2H-Pyrazol-3-yl)-pyridin-2-yloxy]-2-[4-(pyridin-2-yloxy)-piperidin-1-ylmethyl]-quinoline] are 5 nM and 680 nM.
In the same order, the values of `CN(Cc1nc2cc(Oc3ccc(-c4ccn[nH]4)cc3)ccc2[nH]1)C1CCOCC1` [Example 230, Methyl-{5-[4-(2H-pyrazol-3-yl)-phenoxy]-1H-benzoimidazol-2-ylmethyl}-(tetrahydro-pyran-4-yl)-amine] are 0.19 nM and 200 nM.
In the same order, the values of `O=C1COCCN1C1CCN(Cc2ccc3cc(Oc4ccc(-c5ccn[nH]5)cn4)ccc3n2)CC1` [Example 211, 4-(1-{6-[5-(2H-Pyrazol-3-yl)-pyridin-2-yloxy]-quinolin-2-ylmethyl}-piperidin-4-yl)-morpholin-3-one] are 0.8 nM and 230 nM.
For the compound `CC(=O)N1C[C@H]2C[C@@H]1CN2Cc1ccc2cc(Oc3ccc(-c4ccn[nH]4)cn3)ccc2n1` [Example 147, 1-((1R,4R)-5-{6-[5-(2H-Pyrazol-3-yl)-pyridin-2-yloxy]-quinolin-2-ylmethyl}-2,5-diaza-bicyclo[2.2.1]hept-2-yl)-ethanone], the IC50 was 0.48 nM in test [1] and 160 nM in test [2].
The corresponding values for `FC(F)(F)CN1CCN(Cc2nc3cc(Oc4ccc(-c5ccn[nH]5)cc4)ccc3[nH]2)CC1` [Example 63, 5-[4-(2H-Pyrazol-3-yl)-phenoxy]-2-[4-(2,2,2-trifluoro-ethyl)-piperazin-1-ylmethyl]-1H-benzoimidazole] are 0.11 nM and 150 nM.
As for `CC(=O)N[C@@H]1C[C@H]2CC[C@@H](C1)N2CC1Cc2ccc(Oc3ccc(-c4ccn[nH]4)cc3)cc2O1` (stereo partly drawn) [Example 142, N-((exo)-8-{6-[4-(2H-Pyrazol-3-yl)-phenoxy]-2,3-dihydro-benzofuran-2-ylmethyl}-8-aza-bicyclo[3.2.1]oct-3-yl)-acetamide], the half-inhibitory concentration (IC50) in test [1] worked out at 0.25 nM; in test [2] it was 210 nM.
`OC1CCN(Cc2ccc3cc(Oc4ccc(-c5ccn[nH]5)cn4)ccc3c2)CC1` [Example 4, 1-{6-[5-(2H-Pyrazol-3-yl)-pyridin-2-yloxy]-naphthalen-2-ylmethyl}-piperidin-4-ol]: the half-maximal inhibitory concentration (IC50) amounted to 0.54 nM in test [1] and 190 nM in test [2].
As to `CC(=O)N[C@H]1C[C@H]2CC[C@@H](C1)N2CC1Cc2ccc(Oc3ccc(-c4ccn[nH]4)cc3)cc2O1` (stereo partly drawn) [Example 131, N-((endo)-8-{6-[4-(2H-Pyrazol-3-yl)-phenoxy]-2,3-dihydro-benzofuran-2-ylmethyl}-8-aza-bicyclo[3.2.1]oct-3-yl)-acetamide], the concentration for half-maximal inhibition (IC50) was 0.17 nM in test [1] and 120 nM in test [2].
In the same order, the values of `CC(C)N1CCN(Cc2nc3cc(Oc4ccc(-c5ccn[nH]5)cc4)ccc3[nH]2)CC1` [Example 64, 2-(4-Isopropyl-piperazin-1-ylmethyl)-5-[4-(2H-pyrazol-3-yl)-phenoxy]-1H-benzoimidazole] are 0.14 nM and 180 nM.
The corresponding values for `c1cc(-c2cnc(Oc3ccc4nc(CN5CCCC5)ccc4c3)nc2)[nH]n1` [Example 220, 6-[5-(2H-Pyrazol-3-yl)-pyrimidin-2-yloxy]-2-pyrrolidin-1-ylmethyl-quinoline] are 1.7 nM and 160 nM.
With `CN(Cc1nc2cc(Oc3ccc(-c4ccn[nH]4)cc3)ccc2[nH]1)CC1CCOC1` (stereo not drawn) [Example 104, Methyl-{5-[4-(2H-pyrazol-3-yl)-phenoxy]-1H-benzoimidazol-2-ylmethyl}-(tetrahydro-furan-3-ylmethyl)-amine], the IC50 amounted to 0.27 nM in test [1] and 190 nM in test [2].
In the same order, the values of `O=C1OCCN1C1CCN(Cc2ccc3cc(Oc4ccc(-c5ccn[nH]5)cn4)ccc3n2)CC1` [Example 11, 3-(1-{6-[5-(2H-pyrazol-3-yl)-pyridin-2-yloxy]-quinolin-2-ylmethyl}-piperidin-4-yl)-oxazolidin-2-one] are 0.65 nM and 180 nM.
In the same order, the values of `OC(C1CCN(Cc2nc3cc(Oc4ccc(-c5ccn[nH]5)cc4)ccc3[nH]2)CC1)C(F)(F)F` (stereo not drawn) [Example 71, 2,2,2-Trifluoro-1-(1-{5-[4-(2H-pyrazol-3-yl)-phenoxy]-1H-benzoimidazol-2-ylmethyl}-piperidin-4-yl)-ethanol] are 0.14 nM and 260 nM.
The corresponding values for `CNCc1ccc2cc(Oc3ccc(-c4ccn[nH]4)cn3)ccc2n1` [Example 25, Methyl-{6-[5-(2H-pyrazol-3-yl)-pyridin-2-yloxy]-quinolin-2-ylmethyl}-amine] are 0.5 nM and 110 nM.
As to `c1cc(-c2ccc(Oc3ccc4[nH]c(CNCC5CCOCC5)nc4c3)cc2)[nH]n1` [Example 106, {5-[4-(2H-Pyrazol-3-yl)-phenoxy]-1H-benzoimidazol-2-ylmethyl}-(tetrahydro-pyran-4-ylmethyl)-amine], the values for the IC50 in test [1] and in test [2] were 0.17 nM and 200 nM, respectively.
The corresponding values for `CC(=O)N1CCN(Cc2cnc3cc(Oc4ccc(-c5ccn[nH]5)cc4)ccc3n2)CC1` [Example 241, 1-(4-{6-[4-(2H-Pyrazol-3-yl)-phenoxy]-quinoxalin-2-ylmethyl}-piperazin-1-yl)-ethanone] are 3.5 nM and 980 nM.
In the same order, the values of `O=C1OC[C@@H]2CN(Cc3ccc4cc(Oc5ccc(-c6ccn[nH]6)cn5)ccc4n3)CCN12` [Example 16, (S)-7-{6-[5-(2H-pyrazol-3-yl)-pyridin-2-yloxy]-quinolin-2-ylmethyl}-hexahydro-oxazolo[3,4-a]pyrazin-3-one] are 1.1 nM and 250 nM.
In the same order, the values of `CC[C@H](C)NCc1nc2cc(Oc3ccc(-c4ccn[nH]4)cc3)ccc2[nH]1` [Example 161, ((S)-sec-Butyl)-{5-[4-(2H-pyrazol-3-yl)-phenoxy]-1H-benzoimidazol-2-ylmethyl}-amine] are 0.14 nM and 120 nM.
As to `CC(=O)N(C)C1CCN(Cc2ccc3cc(Oc4ccc(-c5ccn[nH]5)cn4)ccc3n2)CC1` [Example 37, N-Methyl-N-(1-{6-[5-(2H-pyrazol-3-yl)-pyridin-2-yloxy]-quinolin-2-ylmethyl}-piperidin-4-yl)-acetamide], the IC50 in test [1] is 0.86 nM; in test [2], 270 nM.
`c1cc(-c2ccc(Oc3ccc4nc(CNCCC5CCOCC5)ccc4c3)nc2)[nH]n1` [Example 214, {6-[5-(2H-Pyrazol-3-yl)-pyridin-2-yloxy]-quinolin-2-ylmethyl}-[2-(tetrahydro-pyran-4-yl)-ethyl]-amine]: the 50% inhibitory concentration (IC50) in test [1] was 2.5 nM; in test [2], 400 nM.
Regarding `O=C1CC[C@@H](Cn2ncc3cc(Oc4ccc(-c5ccn[nH]5)cn4)ccc32)N1` [Example 117, (S)-5-{5-[5-(2H-Pyrazol-3-yl)-pyridin-2-yloxy]-indazol-1-ylmethyl}-pyrrolidin-2-one], the half-maximal inhibitory concentration (IC50) in test [1] was 4.4 nM; in test [2], 650 nM.
